# Results taken from patent publication US6517856B1, “Insecticide resistance assay” (priority 1998, dated 2003).
# System: H. zea
# Assay: Modified feeding disruption bioassay on MVP-hydrated meal pads, field strains
# Format: in vivo, Helicoverpa zea
# Experimental: Trypan Blue (Direct Blue 14; Matheson Coleman and Bell, Norwood, Ohio) was blended with artificial diet, 20 mg dye per 100 ml diet. Blue diet aliquots were dispensed (100 μl per well) into 8-well microtiter plate strips (Nalge Nunc Int., Napersville, Ill.). The blue dye served as a marker of feeding on the assay diet, with larvae feeding on colored diet producing blue feces which were easily distinguished visually from feces derived from other food sources. Microtiter plate strips containing blue diet were frozen at −80° C. and lyophilized (Bench Top 6, Virtis, Gardiner, N.Y.; cold trap=−70° C., ˜200 mTorr, ambient temperature=23° C.) for a minimum of 24 h in order to form hydratable meal pads. Meal pads were stored in the dark in sealed plastic bags with desiccant prior to use.
# Meal pads were hydrated with aqueous dilutions of the B. thuringiensis CryIAc δ-endotoxin formulation MVP (Mycogen, San Diego, Calif.) at least 1 h prior to the start of assays. Fresh diet aliquots (100 μl) consistently lost 78-84% of their water content by weight during the lyophilization process. Therefore, meal pads were hydrated with 80 μl of MVP in distilled water (treatments) or distilled water only (controls). The insecticide concentrations referenced throughout this paper are in μg MVP per ml of diet, i.e. the final concentration of insecticide in hydrated diet, which is 80% of the concentration of the solution used to hydrate the meal pads. Strip caps (Nunc) were cut into single caps in order to seal wells of the microtiter plate strips individually, which facilitated observation within wells while not allowing neighboring larvae to escape. In order to reduce condensation within the wells and provide larvae with air, caps were punctured twice with a #3 insect pin. Bioassays were conducted at 27±1° C. with a 14:10 (L:D) cycle, and blue fecal pellets were counted at 24 h. Neonates were used in all assays and were exposed to assay diets within 24 h of hatch. The results from each assay are taken from two replicates of each dose, with each replicate consisting of 24 larvae, one larva per well. Control (no dose) treatments were replicated three times. Dead larvae (defined as no movement for 30 s after prodding with a blunt probe) at the assay endpoint (24 h) were discarded and not included in the reported results. For each surviving larva, the number of fecal pellets produced was recorded. Serial dilutions of the MVP formulation were used for meal pad hydration, with separate dilution series prepared for each replicate.
# Following 24 h exposure to diet containing a known concentration of MVP (Mycogen), a surviving larva was designated as a ‘feeder’ if it had produced more than two fecal pellets and as a ‘non-feeder’ otherwise. The cut-off value of two fecal pellets was adopted because this provided the clearest separation between species. Probit analyses were applied to the dichotomized fecal pellet counts in order to compare strains, between and within species, with respect to the feeding disruption response. A probit model was then used to relate the proportion of non-feeders to dose (on a log10 scale). Probit curves were fitted separately for each insect strain, and a NFC50 (non-feeding concentration50; log10 of the MVP concentration resulting in 50% non-feeders) and slope was obtained for H. zea. Also, probit curves were compared across species and among strains within species using PROC GENMOD with LINK=PROBIT (SAS 1993) on the data for all strains combined, and fitting effects for species, strains within species, log10 dose, as well as dose by species and dose by strain within species interactions.
# Probit estimates of the proportion of feeders at the diagnostic concentration for each strain were used to predict the properties of an assay involving exposure of a small number, n, of larvae in individual wells for 24 h to diet containing a diagnostic concentration of the MVP formulation (final MVP concentration in diet 0.04 μg/ml). […]
substance,measurement,setting,value
"CryIAc: Bacillus thuringiensis CryIAc δ-endotoxin, commercial formulation MVP (Mycogen), >98.0% δ endotoxin","pr, probability of a larva being a feeder, most conservative probit estimate","H. zea strains, diagnostic concentration 0.04 μg/ml, 24 h",0.80
same,non-feeding response (0-2 fecal pellets),"Hz Alachua neonates, 1200 μg MVP per ml diet, 24 h",87.2%
same,feeding response (>2 fecal pellets),"Hz Alachua, 0.04 μg MVP per ml diet, 24 h",100%
same,percentage of neonates remaining feeders (>2 fecal pellets per larva),"Hz Alachua, 1200 μg MVP per ml diet, 24 h",12.8%
same,percentage producing 0-2 fecal pellets over 24 h,"Hz Baldwin neonates, 400 μg MVP per ml diet",97.7%
same,non-feeding response (0-2 fecal pellets),"Hz Barnwell neonates, 1200 μg MVP per ml diet, 24 h",100%
same,feeding response (>2 fecal pellets),"Hz Barnwell, 0.04 μg MVP per ml diet, 24 h",100%
same,percentage producing 0-2 fecal pellets over 24 h,"Hz Harmon neonates, 400 μg MVP per ml diet",89.5%
same,"pr, feeding probability","Hz Irwin (south Georgia), 0.04 μg MVP per ml diet, 24 h",0.98
same,non-feeding response (0-2 fecal pellets),"Hz Nueces neonates, 1200 μg MVP per ml diet, 24 h",100%
same,percentage producing 0-2 fecal pellets over 24 h,"Hz Washington neonates, 400 μg MVP per ml diet",97.6%
same,feeding response (>2 fecal pellets),"Hz Washington, 0.04 μg MVP per ml diet, 24 h",80.4%
same,percentage of larvae producing >6 fecal pellets,"all H. zea larvae assayed, 1200 μg MVP per ml diet, 24 h",< 1%
same,percentage producing >15 fecal pellets,"each of Hz Alachua, Hz Barnwell, Hz Baldwin, 0.04 μg MVP per ml diet, 24 h",> 90%
same,percentage non-feeders,"each of three other H. zea field strains, 400 μg MVP per ml diet, 24 h",Less than 88.0%
same,non-feeding response,"three of the six H. zea susceptible field strains, 400 μg MVP per ml hydrated diet",> 89%
